Where “and” joins values, the source holds several entries; their conditions need not be identical. Equal entries are not always repeated. Structures can show the parent of a compound that is named as a salt. Blank lines part the entries; values can stand above or below the compound they belong to.
How the values were obtained:
male Swiss-Webster mice [1] = details: previously determined (Grant et al. 2004, U.S. Pat. No. 6,162,462); cited from earlier work
[2] = cited from earlier work
male Swiss-Webster mice [3] = assay: Analgesic efficacy in mouse model: electrical stimulation of abdominal skin, vocalization threshold, analgesia score and duration; format: in vivo; set-up: key to analgesia score, 15 min / analgesia score, 30 min / analgesia score, 45 min / analgesia score, 60 min / analgesia score, 75 min / analgesia score, 90 min / analgesia score, 105 min / analgesia score, 120 min / analgesia score, 135 min: 1 = analgesia; 0 = no analgesia; 10 = partial analgesia; key to analgesia score 150′ / analgesia score 5′ / analgesia score 30′ / analgesia score 60′ / analgesia score 75′ / analgesia score 90′ / analgesia score 105′ / analgesia score 120′ / analgesia score 135′: If the anesthesia was complete the numeric value given was 1.0; when analgesia was partial (incomplete) it received the numeric value of 10.0 in the Table 1 and in other Tables a score of 0.5; for no anesthesia the numeric score was 0
Source text: Analgesic efficacy in male Swiss Webster mouse model: Testing for analgesia was done by electrical stimulation of mice skin as described elsewhere (G. J. Grant et al, Pharmaceutical Research, 18, no 3, 336-343, 2001). Pain as electrical stimulation at the desired intensity was inflicted to the skin of shaved mice abdomen. The current generator (model S48, Grass Instruments (W. Warwick, R.I. USA) was used. Mice (male Swiss-Webster, 26±3 gr (n=7 per group) were used. The mice were shaved the hair overlying the abdomen and tested prior to injection to determine the Individual vocalization threshold of each mice. Than the mice were injected with (0.3-0.4 ml of one of the following: free bupivacaine, or LMVV-BUP or various LMVV entrapped in Ca-alginate or chitosan-oxalate cross linked hydrogels through 30G needle. The analgesia duration was than followed as specified in the experiment itself. All experiments were approved and ratified by the HUJI ethic committee.
Analysis of the in vivo mice analgesia: A numerical score to the spreadsheet was introduced for the evaluation of the analgesic effect of various liposome preparations performance in vivo: For each time period (e.g. 4 hrs, 8 hrs etc) a numeric value to each mouse in the experiment was given. If the anesthesia was complete the numeric value given was 1.0; when analgesia was partial (incomplete) it received the numeric value of 10.0 in the Table 1 and in other Tables a score of 0.5 and for no anesthesia the numeric score was 0. The mean for each subgroup was calculated separately (i.e. 1% 300 μl, 2%[…]).
Testing for analgesia was done by electrical stimulation of the skin directly overlying the abdomen at the site of injection using a current generator (model S48, Grass Instruments) as described in Grant et al 2001. (G. J. Grant et al, pharmaceutical research, vol 18, no 3, 336-343, 2001), and in Methods above.
Mice (male Swiss-Webster 26±3 gr) were tested prior to injection to determine the vocalization threshold than were injected with liposomal BUP or free BUP than followed by determination of analgesia duration (The duration of the main in vivo screening study was 2 days and started after a preliminary study using two different injection volumes of formulation #4 (referred to as the PILOT in Table 9A) was performed. […]
Testing for analgesia was performed by electrical stimulation of mice skin as described elsewhere (G. J. Grant et al, Pharmaceutical Research, 18, no 3, 336-343, 2001). Pain by electrical stimulation at the desired intensity was applied to the skin of shaved mice abdomen. The current generator (model S48, Grass Instruments (W. Warwick, R.I. USA) was used. Mice (male Swiss-Webster, 26±3 gr (n=8 per group) were used. The mice were shaved the hair overlying the abdomen and tested prior to injection to determine the Individual vocalization threshold of each mice. Than the mice were injected through 30G needle with 0.25 ml of one of the following formulation: • 1—Alginate beads containing LMVV-BUP (010609), were stored at 4 c for 2 months in 0.5% bup, PH=5.5 (see B3). The external solution of the beads were removed before injection without washing them. • 2—Alginate beads containing LMVV-BUP (010609), were stored at 4 c for 2 months in 2% bup, PH=5.5 (see B3). The external solution of the beads were removed and the beads washed (2.5 ml saline×5) before injection. • 3—Alginate beads containing LMVV-BUP (010609), were stored at 4 c for 2 months in 1% bup, PH=5.5 (see B3). The external solution of the beads were removed before injection without washing them. • 4—Alginate beads containing LMVV-BUP (010609), were stored at 4 c for 2 months in saline, PH=5.5 (see B3). The external solution of the beads were removed before injection without washing them. • 5—LMVV-BUP (010609) were stored at 4 c for 2 months in saline PH=5.5. • 6—BLANK: Aginate beads containing LMVV without bup, were stored at 4 c for 2 months in saline PH=5.5. […]

[4] = Free (non liposomal) and total bupivacaine determination by HPLC (% free BUP in the preparation); format: physicochemical; details: Example 2 samples
Protocol: Bupivacaine determination: free (non liposomal) or total (liposomal plus free) concentration of bupivacaine was measured by HPLC (Grant et al Parm. Res., 2001 18, N3, 336-343; Anesthesiology, 2004, 101, 133-137).
Drug/lipid ratio determination for hydrogel beads: The washed beads were injected through a 25G×⅝″ (0.5 mm×16 mm) syringe needle to have homogenous dispersion and were diluted ×10 with saline: • 50 μl and 100 μl used for PL. determination. • 100 μl centrifuged 10′ 2000 g at 4° C. and the supernatant diluted ×10 with isopropanol (IPA) to determine free bupivacaine. • 100 or 200 μl heated in boiling water, than centrifuged 10′ at 2000 g. The supernatant was diluted ×10 with IPA to determine total bupivacaine by HPLC.
All samples for bupivacaine determination were centrifuged for 2 min. at 5000 g (using Eppendof centrifuge) after dilution in IPA. The upper phase was removed and analyzed by HPLC.
All liposomal formulations were analyzed for free non liposomal BUP and total BUP before the in vivo experiment followed by their concentration to reach the level of 2% (w/w) BUP (for liposome formulations #1, 2, 3, 5, 6, 8) and to 1% (w/w BUP for liposome formulations #4 & 7). BUP was loaded into the liposomes either by active loading (CA or AS gradient) or by passive loading as described in Table 8.
Free Bup (Non Liposomal Bup) Determination: […]

[5] = Bup Conc 0.25%, Volume 150 ul, 0.375 mg Bup, individual mice
[6] = Bup Conc 0.25%, Volume 150 ul, 0.375 mg Bup, individual mice, hydrochloride
[7] = Bup Conc 0.25%, Volume 300 ul, 0.75 mg Bup, individual mice
[8] = Bup Conc 0.25%, Volume 300 ul, 0.75 mg Bup, individual mice, hydrochloride
[9] = Bup Conc 0.50%, Volume 150 ul, 0.75 mg Bup, individual mice
[10] = Bup Conc 0.50%, Volume 150 ul, 0.75 mg Bup, individual mice, hydrochloride

Compound: CCCCN1CCCCC1C(=O)Nc1c(C)cccc1C (stereo not shown) [Standard Bupivacaine, Bupivacaine hydrochloride]
duration of analgesic effect post injection (male Swiss-Webster mice [1]): approximately 75 minutes | solubility limit of bupivacaine at pH 5.5 ([2]; 25° C., pH 5.5): below 2.9% | solubility of bupivacaine 25° C. at pH 2.0 ([2]; pH 2.0): 7.5% | mass solubility of bupivacaine at 25° C. in pH 5 ([2]; pH 5): 2.9% | mass solubility of bupivacaine at 25° C. in pH 6 ([2]; pH 6): 0.55% | analgesia score, 15 min (male Swiss-Webster mice [3]; [5]): 1 | analgesia score, 30 min (male Swiss-Webster mice [3]; [5]): 1 | analgesia score, 45 min (male Swiss-Webster mice [3]; [5]): 1 | analgesia score, 90 min (male Swiss-Webster mice [3]; [5]): 0 | analgesia score, 60 min (male Swiss-Webster mice [3]; [6]): 0 (5×) and 1 (2×) and 10 | analgesia score, 75 min (male Swiss-Webster mice [3]; [6]): 0 (7×) and 10 | analgesia score, 15 min (male Swiss-Webster mice [3]; [7]): 1 | analgesia score, 30 min (male Swiss-Webster mice [3]; [7]): 1 | analgesia score, 45 min (male Swiss-Webster mice [3]; [7]): 1 | analgesia score, 60 min (male Swiss-Webster mice [3]; [7]): 1 | analgesia score, 135 min (male Swiss-Webster mice [3]; [7]): 0 | analgesia score, 75 min (male Swiss-Webster mice [3]; [8]): 0 and 1 (7×) | analgesia score, 90 min (male Swiss-Webster mice [3]; [8]): 0 and 1 (5×) and 10 (2×) | analgesia score, 105 min (male Swiss-Webster mice [3]; [8]): 0 (5×) and 10 and 1 (2×) | analgesia score, 120 min (male Swiss-Webster mice [3]; [8]): 0 (7×) and 10 | analgesia score, 15 min (male Swiss-Webster mice [3]; [9]): 1 | analgesia score, 30 min (male Swiss-Webster mice [3]; [9]): 1 | analgesia score, 45 min (male Swiss-Webster mice [3]; [9]): 1 | analgesia score, 105 min (male Swiss-Webster mice [3]; [9]): 0 | analgesia score, 60 min (male Swiss-Webster mice [3]; [10]): 1 (7×) and 10 | analgesia score, 75 min (male Swiss-Webster mice [3]; [10]): 1 (6×) and 0 and 10 | analgesia score, 90 min (male Swiss-Webster mice [3]; [10]): 0 (4×) and 10 (2×) and 1 (2×) | analgesia score, 15 min (male Swiss-Webster mice [3]; per mouse, free BUP 0.25%, 150 ul, 0.375 mg Bup, 15 min): 1 | analgesia score, 30 min (male Swiss-Webster mice [3]; per mouse, free BUP 0.25%, 150 ul, 0.375 mg Bup, 30 min): 1 | analgesia score, 45 min (male Swiss-Webster mice [3]; per mouse, free BUP 0.25%, 150 ul, 0.375 mg Bup, 45 min): 1 | analgesia score, 60 min (male Swiss-Webster mice [3]; per mouse, free BUP 0.25%, 150 ul, 0.375 mg Bup, 60 min, hydrochloride): 0 (5×) and 1 (2×) and 10 | analgesia score, 75 min (male Swiss-Webster mice [3]; per mouse, free BUP 0.25%, 150 ul, 0.375 mg Bup, 75 min, hydrochloride): 0 (7×) and 10 | analgesia score, 90 min (male Swiss-Webster mice [3]; per mouse, free BUP 0.25%, 150 ul, 0.375 mg Bup, 90 min): 0 | analgesia score, 15 min (male Swiss-Webster mice [3]; per mouse, free BUP 0.25%, 300 ul, 0.75 mg Bup, 15 min): 1 | analgesia score, 30 min (male Swiss-Webster mice [3]; per mouse, free BUP 0.25%, 300 ul, 0.75 mg Bup, 30 min): 1 | analgesia score, 45 min (male Swiss-Webster mice [3]; per mouse, free BUP 0.25%, 300 ul, 0.75 mg Bup, 45 min): 1 | analgesia score, 60 min (male Swiss-Webster mice [3]; per mouse, free BUP 0.25%, 300 ul, 0.75 mg Bup, 60 min): 1 | analgesia score, 75 min (male Swiss-Webster mice [3]; per mouse, free BUP 0.25%, 300 ul, 0.75 mg Bup, 75 min, hydrochloride): 0 and 1 (7×) | analgesia score, 90 min (male Swiss-Webster mice [3]; per mouse, free BUP 0.25%, 300 ul, 0.75 mg Bup, 90 min, hydrochloride): 0 and 1 (5×) and 10 (2×) | analgesia score, 105 min (male Swiss-Webster mice [3]; per mouse, free BUP 0.25%, 300 ul, 0.75 mg Bup, 105 min, hydrochloride): 0 (5×) and 10 and 1 (2×) | analgesia score, 120 min (male Swiss-Webster mice [3]; per mouse, free BUP 0.25%, 300 ul, 0.75 mg Bup, 120 min, hydrochloride): 0 (7×) and 10 | analgesia score, 135 min (male Swiss-Webster mice [3]; per mouse, free BUP 0.25%, 300 ul, 0.75 mg Bup, 135 min): 0 | analgesia score, 15 min (male Swiss-Webster mice [3]; per mouse, free BUP 0.50%, 150 ul, 0.75 mg Bup, 15 min): 1 | analgesia score, 30 min (male Swiss-Webster mice [3]; per mouse, free BUP 0.50%, 150 ul, 0.75 mg Bup, 30 min): 1 | analgesia score, 45 min (male Swiss-Webster mice [3]; per mouse, free BUP 0.50%, 150 ul, 0.75 mg Bup, 45 min): 1 | analgesia score, 60 min (male Swiss-Webster mice [3]; per mouse, free BUP 0.50%, 150 ul, 0.75 mg Bup, 60 min, hydrochloride): 1 (7×) and 10 | analgesia score, 75 min (male Swiss-Webster mice [3]; per mouse, free BUP 0.50%, 150 ul, 0.75 mg Bup, 75 min, hydrochloride): 1 (6×) and 0 and 10 | analgesia score, 90 min (male Swiss-Webster mice [3]; per mouse, free BUP 0.50%, 150 ul, 0.75 mg Bup, 90 min, hydrochloride): 0 (4×) and 10 (2×) and 1 (2×) | analgesia score, 105 min (male Swiss-Webster mice [3]; per mouse, free BUP 0.50%, 150 ul, 0.75 mg Bup, 105 min): 0

Free bup concentration(%) after injection through G31 syringe needle ([4]; analyzed after the experiment was finished): 0.25% | Free bup concentration(%) after injection through G31 syringe needle ([4]; analyzed before starting the experiment): 0.25%
Compound: CCCCN1CCCCC1C(=O)Nc1c(C)cccc1C (stereo not shown) [compound 9]
analgesia duration, comparison of Example 2 formulations (male Swiss-Webster mice [3]; Example 2, mice): shortest analgesia duration | analgesia score 5′ (male Swiss-Webster mice [3]; Example 2 group 9, per mouse, 0.25% bup 300 ul, 5 min): 1 | analgesia score 30′ (male Swiss-Webster mice [3]; Example 2 group 9, per mouse, 0.25% bup 300 ul, 30 min): 1 | analgesia score 60′ (male Swiss-Webster mice [3]; Example 2 group 9, per mouse, 0.25% bup 300 ul, 60 min): 1 | analgesia score 75′ (male Swiss-Webster mice [3]; Example 2 group 9, per mouse, 0.25% bup 300 ul, 75 min, listed as standard free bupivacaine): 1 (3×) and 0 (2×) | analgesia score 90′ (male Swiss-Webster mice [3]; Example 2 group 9, per mouse, 0.25% bup 300 ul, 90 min, listed as standard free bupivacaine): 1 (3×) and 0 (2×) | analgesia score 105′ (male Swiss-Webster mice [3]; Example 2 group 9, per mouse, 0.25% bup 300 ul, 105 min, listed as standard free bupivacaine): 1 and 0 (2×) | analgesia score 120′ (male Swiss-Webster mice [3]; Example 2 group 9, per mouse, 0.25% bup 300 ul, 120 min, listed as standard free bupivacaine): 0.5 and 0 (2×) | analgesia score 135′ (male Swiss-Webster mice [3]; Example 2 group 9, per mouse, 0.25% bup 300 ul, 135 min): 0 | analgesia score 150′ (male Swiss-Webster mice [3]; Example 2 group 9, per mouse, 0.25% bup 300 ul, 150 min): 0
